From article PMC10484922, “Discovery of a selective and biologically active low-molecular weight antagonist of human interleukin-1β” (Nature Communications, 2023) come the findings set out here.

Values joined by “and” are separate entries in the source; they are usually repeats but may differ in a detail not shown here. Equal entries are not always repeated. Where two headings read alike, the source gives them in different places.

In assay [1] the target is T1, IL-1β (Homo sapiens, UniProt P01584). Description: SPR binding of compounds to immobilized hIL-1β. Set-up: Mature hIL-1β was expressed in Escherichia coli; made in house; host or cells: Escherichia coli BL21 (DE3), pET17b. How it is done:
All SPR experiments were performed with an SPR-32 instrument (Bruker Daltonics SPR, Hamburg, Germany). SPR chips were from XanTec bioanalytics GmbH (Düsseldorf, Germany).
C-terminally avi-tagged hIL-1β protein was immobilized onto a SAHC200M chip with a neutravidin-coated surface. Immobilization was performed with a protein injection of 0.02 mg/ml IL-1β diluted in PBS pH 7.5 (Gibco 70011-036, 10×), 0.05% Tween-20 for 5 min at 10 μl/min. The running buffer for binding studies of compounds was PBS pH 7.4, 0.05% Tween-20, and 2% DMSO. For the correction of small DMSO variations between samples, injections of 6 solvent samples ranging from 1% to 3% DMSO were run. Compound measurements were performed in MICK mode (multiple injection cycles kinetic) with a dose–response of 10 concentrations. Dissociation constants for compounds (KD) were obtained by determining steady-state fit that followed the 1:1 Langmuir model.
Data analysis was performed with the Sierra Analyzer 3.4.0 software from Bruker. Signal intensities were corrected for nonspecific binding to the surface by subtracting intensities from the reference surface from those of the hIL-1β surfaces (first reference subtraction) and by subtracting the buffer injection (second reference subtraction). KD values were carried out by determining a reporting point close to the end of the injection, used for steady-state fit, in addition to a kinetic fit delivering kon- and koff-values; both fitting models followed the 1:1 Langmuir equation.
Supplementary Figure 3. De termination of binding af fi nit ie s for se l ec ted ana l ogues of 1 by SPR. a - d Gr ap hs of exemplary experimen ts are given , where the sat urat ion of hI L-1b immobil ized on a chip was monitored at various concentrations of compound 3, 12, 10, and 11, respectively. Th e saturati on reached at equ ilibri um (insert) was plo tt ed versus the admini stered concentration and the equ ilibri um bin ding constant was derived from a non-li near lea st square fitting routine. e equ ilibri um and f kinetic bin ding of (S)-2 to IL-1b (kon = 1. 15 x 105 M-1 s-1 and koff = 0. 12 s-1).
A general note: SPR reads the build-up and loss of mass on a sensor chip optically.

The target of assay [2] is T1, IL-1β. Description: TR-FRET IL-1β/hIL-1R1 receptor displacement assay. Type of assay: biochemical. How it is done:
After 1 h incubation at room temperature, hIL-1R1 (1–332; Alexa 647 labeled; 50 nM final concentration) and anti-His-Europium W1024 (Perkin Elmer; Cat.No. AD0401, 1 nM final concentration) were added to a final volume of 10 μl per well. […] All experiments were run in triplicates.
A general note: In TR-FRET formats the signal depends on donor and acceptor labels being close together.

Assay [3] has as its system normal human dermal fibroblasts stimulated with hIL-1β. Description: Human fibroblast IL-6 release assay, hIL-1β stimulated. The assay is classed as cell-based. Set-up: IL-6, average / inhibition, replicates of EXP1, EXP2, EXP3 / inhibition, Mean / IL-1beta (mean, SD): mean readout (IL-6 release): unit not given here. The settings on record: for IL-6, average / IL-6, curve fit: per experiment. How it is done:
We used HEK-Blue™ IL-1β cells that respond specifically to IL-1 (# hkb-il1b, InvivoGen). These cells can detect IL-1α and IL-1β, as these cytokines bind to the same receptor, IL-1R1. They express a Seap reporter gene under the control of the IFN-β minimal promoter fused to five NF-kappaB and five AP-1 binding sites. Thirty microliters (300,000 cells/ml) per well of a 384-well plate were plated overnight. Cells were then stimulated with graded concentrations of cytokines (hIL-1α or hIL-1β) in the absence or presence of canakinumab (Ilaris®, ILARI LYVI 150MG 22GLW.012, batch U003 0409)[22], anakinra (Kineret®, 100 mg/0.67 ml injectable solution, Sobi)[23], or compound (S)-2 (compounds were pre-mixed for 1 h with the cytokine prior to addition to cells) and further incubated overnight before assessment of Seap activity.
Normal human dermal fibroblasts (NHDF) from Clonetics^TM (LONZA, Cat # CC-2509 (NHDF-Neo), Lot # 0000234242, used at passage ≤14) were seeded at a density of 5000 cells/well in 100 μL of culture medium using 96-well plates (flat bottom, TCT). Treatment with cytokines/compounds was performed as described above. Cells were incubated for another 6 h and were subsequently spun down (320g/3 min). IL-6 was measured in the supernatant by ELISA (BioLegend, # 430503) or HTRF (Cisbio, #62HIL06PEH).

Setting [4] is: source data, read-out: SPR Kd, Mean.
[5] abbreviates: source data, read-out: SPR Kd, individual experiments (Exp1-5).
Where [6] appears, read: steady-state fit, 1:1 Langmuir, read-out: SPR KD.
Where [7] appears, read: Il1b wt, read-out: TR-FRET IC50, individual experiments.
Setting [8] is: Homo sapiens, Fibroblast, 6 h, human dermal fibroblasts, hIL-1β, 6 h, read-out: IL-6 release IC50.
[9] abbreviates: Homo sapiens, Fibroblast, source data, read-out: IL-6 IC50, individual experiments.

T1 sequence (P01584 117-269): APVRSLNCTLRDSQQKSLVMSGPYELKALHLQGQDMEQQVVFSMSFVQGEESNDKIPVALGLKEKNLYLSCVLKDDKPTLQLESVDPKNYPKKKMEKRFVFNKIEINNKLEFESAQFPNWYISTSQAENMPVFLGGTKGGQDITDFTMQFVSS

With `Cc1ccc2c(c1)NC(=O)C2(O)c1cc(-c2ccc(C(=O)O)cc2)ccc1O` (stereo not shown) [Compound 10], the Kd – broadly, a measure of binding affinity in units of concentration – at IL-1β [1] (setting [4]) was 43.6 µM; at IL-1β [1] (setting [5]), 58 µM and 63 µM and 27 µM and 26 µM; on IL-1β [1] (setting [6]), 44 ± 17 µM. Also, the IC50 – broadly, the concentration at which inhibition is half-maximal – was 200 µM and 134 µM on IL-1β [2] (setting [7]); 178 ± 38 µM at IL-1β [2] (read-out: TR-FRET IL-1β IC50); 117 µM in assay [3] (setting [8]); 117 µM in assay [3] (setting [9]). Moreover, the “IL-6, average” value in assay [3] (0.3 uM) is 4.183; in assay [3] (1.2 uM) it was 7.793; in assay [3] (3 uM) it was 7.203; in assay [3] (12 uM), 4.254; in assay [3] (33 uM (Cpd 10/11 series)) it was 6.569; in assay [3] (99 uM), 29.3257. For the same compound, the “IL-6, average” value in assay [3] (300 uM) came to 100.311. Besides, the “IL-6, curve fit” value in assay [3] (0.3 uM) turned out to be 2.28E-12; in assay [3] (1.2 uM) it was 3.34E-09; in assay [3] (3 uM), 4.25E-07; in assay [3] (12 uM) it was 0.0006137; in assay [3] (33 uM (Cpd 10/11 series)) it was 0.1292; in assay [3] (99 uM), 29.6479. Further, the “IL-6, curve fit” value in assay [3] (300 uM) is 99.3118.
Turning to `O=C(O)c1ccccc1-c1ccc(O)c(C2(O)C(=O)Nc3cc(Cl)ccc32)c1` (stereo not shown) [Compound 11], the dissociation constant (Kd) is 31.8 µM at IL-1β [1] (setting [4]); 34 µM and 37 µM and 36 µM and 26.3 µM and 25.7 µM at IL-1β [1] (setting [5]); 32 ± 5 µM at IL-1β [1] (setting [6]). The IC50 at IL-1β [2] (setting [7]) is 140 µM and 130 µM and 138 µM and 97.9 µM and 136 µM and 106 µM and 133 µM; on IL-1β [2] (read-out: TR-FRET IL-1β IC50) it was 126 ± 17 µM; at IL-1β [2] (summary, read-out: TR-FRET IL-1beta IC50, AVRG), 126 µM; in assay [3] (setting [8]), 112 ± 1 µM; in assay [3] (setting [9]), 111 µM; in assay [3] (source data, read-out: IL-6 IC50, individual experiments) it was 113 µM. The “IL-6, average” value in assay [3] (99 uM) was 38.1953 and 26.9144; in assay [3] (300 uM), 100.608 and 103.181. Besides, the “IL-6, curve fit” value is 38.6393 and 27.5847 in assay [3] (99 uM); 97.9064 and 99.9483 in assay [3] (300 uM).
